According to patent US20060084599A1, “Compositions, methods and kits relating to notch signaling” (Maine Medical Center, priority 2003, published 2006):

Columns and labels:
[1] = system: NIH 3T3 stable transfectants; test: FGF1 release in stable NIH 3T3 cell transfectants (Example 1); format: cell-based, murine; settings: sJ1 stable transfectants transduced with FGF1 adenovirus, 37° C.
Procedure: Adenovirus vector expressing lacZ, FGF1, caN1, dnN1, caN2 or dnN2 was prepared as described (Hardy et al., 1997, J. Virol. 71: 1842-1849) at a titer of approximately 10^12 viral particles/ml. For adenoviral transduction, NIH 3T3 stable transfectants were incubated in serum-free medium with approximately […] viral particles/cell in the presence of poly-D-lysine hydrobromide (Sigma) (5×10^3 molecules/viral particle) for two hours at 37° C., after which the adenovirus-containing media was removed and replaced with serum-containing medium (10% BCS) for an additional 24 hours. The transduced cells were harvested by trypsin digestion and seeded for the heat shock experiments as previously described (Jackson et al., 1992, Proc. Natl. Acad. Sci. USA 89: 10691-10695). After heat shock, the conditioned media from cells exposed to either 37° C. (normal conditions) or 42° C. (heat shock conditions) were treated with 0.1% DTT for 2 hours at 37° C., adsorbed to heparin-Sepharose and eluted from the column with 1.5 M NaCl. The eluants were resolved by 15% (w/v) SDS-PAGE and evaluated by FGF1 immunoblot analysis as described (Jackson et al., 1992, Proc. Natl. Acad. Sci. USA 89: 10691-10695).

NSC populations = test: NSC clonal expansion on full-length Jagged1 NIH 3T3 feeder layer; format: cell-based; settings: 5 μg/ml thrombin
Text: To further evaluate the activity of thrombin as a modifier of Jagged1, the clonal expansion studies were repeated using NSC populations cultured in the presence of a viable full-length Jagged1 NIH 3T3 cell transfectant feeder layer.

FGF1 transcript = test: Nuclear run-on analysis of FGF1 transcription; format: cell-based, murine
Procedure: Approximately either 1×10^7 Swiss or NIH 3T3 cells were harvested and washed using ice-cold 50 mM sodium phosphate buffer, pH 7.0 containing 15 mM NaCl. Cell pellets were lysed in 4 ml of ice-cold 10 mM Tris-HCl, pH 7.5, containing 3 mM CaCl2, 3 mM MgCl2, 10 mM NaCl, and 0.5 % NP-40. The nuclear pellet was resuspended in glycerol storage buffer (50 mM Tris-HCl, pH 8.3 containing 40% glycerol, 5 mM MgCl2 and 0.1 mM EDTA), the nuclei were snap frozen, and stored in liquid nitrogen. For run-on transcription, 200 μl aliquots of the frozen nuclei were added to 200 μl of reaction buffer (10 mM Tris-HCl, pH 8.3 containing 5 mM MgCl2, 300 mM KCl, 5 mM DTT, 1 mM each of ATP, CTP, and GTP, 40 units of RNase inhibitor and 100 μCi of [^32P]UTP (800 Ci/mmol; Amersham), and incubated at 30° C. for 30 minutes. The mixture was treated with 100 units of RNase-free DNase I for 30 minutes at 30° C. and then incubated with 400 μl of 20 mM Tris-HCl, pH 7.5, containing 2% SDS, 10 mM EDTA, […] proteinase K for 30 minutes at 42° C. Following phenol/CHCl3 extraction, the labelled transcripts were precipitated with isopropanol and dissolved in 50 μl of 10 mM TES, pH 7.5, containing 10 mM EDTA and 0.2% SDS. Linearized plasmid constructs (0.4 μg/dot) containing either the fgf1 or gapdh cDNA were alkali denatured and immobilized onto a Hybond-N^+ membrane (Amersham). Hybridization was performed in 1 ml of ULTRA Hyb (Ambion), with 5×10^6 cpm of radiolabeled RNA and yeast RNA (10 μg/ml) for 18 hours with shaking at 50° C. Membranes were washed twice with washing buffer (2×SSC containing 0.1% SDS) at 50° C. and analyzed using a phosphoimager (Molecular Dynamics).

Substance: sJ1: Soluble Jagged1, amino acid residues about 1 to 1067 (SEQ ID NO:3) of full-length human Jagged1
- FGF1 release under normal growth conditions [1]: significant release of FGF1 at 37 °C

Substance: thrombin
- size of NSC colonies on full-length Jagged1 feeder layer (NSC populations): exaggeration of the size of the NSC colonies
- induction of FGF1 transcript (FGF1 transcript; 10 μg/ml α-thrombin or 5 μM TRAP): able to induce the expression of the FGF1 transcript
- time at which FGF1 mRNA reached a plateau (FGF1 transcript; NIH 3T3 and Swiss 3T3 cells): 2 h
- time at which FGF1 mRNA was initially detected (FGF1 transcript; NIH 3T3 and Swiss 3T3 cells): 15 min
